{"source": "ChEMBL document CHEMBL3872201", "about": "“Synthesis and antiproliferative activity of a natural like glycoconjugate polycyclic compound” (2016)", "experiment": "Cytotoxicity against human MDA-MB-231 cells assessed as inhibition of cell viability at 5 uM after 48 hrs by MTT assay relative to control", "assay_type": "functional", "settings": "MDA-MB-231, 48 h", "data": [{"smiles": "C=C1c2c(C)nn(-c3ccc(OC)cc3)c2N(C)C23CC1C1(C)c4c(C)nn(-c5ccc(OC)cc5)c4N(C)C(C)(CC12)C3", "note": "(stereo unspecified)", "values": [{"measurement": "inhibition at 5 µM", "result": 26, "unit": "%"}]}]}
